Data taken from US3968129A, “Azidophenol amine compounds and therapeutic compositions” (Boehringer Mannheim G.m.b.H., priority 1974, dated 1976).

Columns and labels:
[1] = system: cardiac β-receptor; test: Cardiac β-receptor blocking activity: inhibition of isoprenalin-induced heart frequency increase (tachycardia) in wake rabbits; assay type: in vivo; conditions: wake rabbit; for Blocking of Isoprenalin Tachycardia in wake rabbits: Heartbeat Frequency x±sx: isoprenalin 1 μg/kg i.v. 30 min after infusion; for DE250: interpolated dosage which limits the frequency increase to 250 beats/min
Method: (§1) The following tests were carried out to determine the cardiac β-receptor blocking activity and the acute toxicity of certain compounds representative of the invention, as well as of a conventional comparison compound.
The cardiac β-receptor blocking activity of the test compounds was evaluated by determination of the inhibition of isoprenalin-induced heart frequency increase in wake rabbits. This type of inhibition is a typical property of β-receptor blocking bio catalysts.
The tests were carried out on rabbits weighing between 2 to 3.5 kg settled in wooden cages with EKG-electrodes inserted into the hind-quarters s.c. The heart frequency was read via an integrator (15 seconds) as a digital value. The substances to be tested were infused through a small tube to the ear vein of the rabbits over a period of 15 minutes 30 minutes after completion of the infusion, isoprenalin (1 μg/kg) was intravenously injected. The results were set forth in terms of the reduction of the heartbeat increase induced by isoprenalin and a value (DE250) calculated as the dosage required to limit such increase to 250 heart beats/min.

[2] = in vivo; conditions: iv; for LD50: mouse, i.v. into tail vein within 5 seconds, dosage at which 50% of the mice die, read-out: Acute Toxicity LD50 Mouse; for therapeutic index (LD50/DE250): ratio of LD50 (mouse i.v.) to DE250 (wake rabbit i.v.)
Method: as §1
In another series of tests, the acute toxicity in mice of the test compounds by intravenous administration was determined as a measure of the tolerance (calculated as LD50 = dosage at which 50% of the mice die). The substances were injected, within a time period of 5 seconds, in dissolved form into the tail vein of 5 male and 5 female mice each, in increasing dosages. From the results (percentage of dead animals) at the various dosages, the mean lethal dosage was ascertained graphically or by way of programmed test analysis.
The results of both series of tests are set forth in the table below which contains, in addition, a calculated value expressing the ratio of LD50 : DE250 for each test compound.

| SMILES | Blocking of Isoprenalin Tachycardia in wake rabbits: Heartbeat Frequency x±sx ([1]; dosage 0.5 mg/kg i.v.) [Beats/minute] | Blocking of Isoprenalin Tachycardia in wake rabbits: Heartbeat Frequency x±sx ([1]; dosage 1.0 mg/kg i.v.) [Beats/minute] | Blocking of Isoprenalin Tachycardia in wake rabbits: Heartbeat Frequency x±sx ([1]; dosage 2.0 mg/kg i.v.) [Beats/minute] | Blocking of Isoprenalin Tachycardia in wake rabbits: Heartbeat Frequency x±sx ([1]; dosage 5.0 mg/kg i.v.) [Beats/minute] | Blocking of Isoprenalin Tachycardia in wake rabbits: Heartbeat Frequency x±sx ([1]; dosage 10.0 mg/kg i.v.) [Beats/minute] | Blocking of Isoprenalin Tachycardia in wake rabbits: Heartbeat Frequency x±sx ([1]; dosage 20.0 mg/kg i.v.) [Beats/minute] | DE250 [1] [mg/kg i.v.] | LD50 [2] [mg/kg] | Blocking of Isoprenalin Tachycardia in wake rabbits: Heartbeat Frequency x±sx ([1]; dosage 0.01 mg/kg i.v.) [Beats/minute] | Blocking of Isoprenalin Tachycardia in wake rabbits: Heartbeat Frequency x±sx ([1]; dosage 0.1 mg/kg i.v.) [Beats/minute] | therapeutic index (LD50/DE250) [2] | Blocking of Isoprenalin Tachycardia in wake rabbits: Heartbeat Frequency x±sx ([1]; dosage printed "10" mg/kg i.v. (Compound 3 line)) [Beats/minute] |
| --- | --- | --- | --- | --- | --- | --- | --- | --- | --- | --- | --- | --- |
| CC(=O)Nc1ccc(OCC(O)CNC(C)C)cc1 (stereo not shown) [Comparison Compound A, 4-[2-hydroxy-3-isopropylaminopropoxy]acetanilide, reference compound] | 307± 7 | 264± 9 | 250± 4 | 246± 7 | 217± 4 | 225± 6 | 2.5 | 69 |  |  |  |  |
| CC(C)NCC(O)COc1ccccc1N=[N+]=[N-] (stereo not shown) [Compound 1, 2-(2-Hydroxy-3-isopropylaminopropoxy)-azidobenzene] | 250± 5 | 236±11 |  | 223± 6 |  |  | 0.3 | 25 | 288± 8 | 252±10 | 80 |  |
| CC(C)NCC(O)COc1cccc(N=[N+]=[N-])c1 (stereo not shown) [Compound 2, 3-(2-Hydroxy-3-isopropylaminopropoxy)-azidobenzene] | 282± 9 | 258±10 |  | 205± 9 |  |  | 1.3 | 50 |  |  | 40 |  |
| CC(C)(C)NCC(O)COc1cccc(N=[N+]=[N-])c1 (stereo not shown) [Compound 3, 3-(2-Hydroxy-3-tert.-butylaminopropoxy)-azidobenzene] | 256±10 |  | 222± 6 | 235±10 |  |  | 0.8 | 50 |  | 317±10 | 60 | 244± 8 |
| CC(C)(C)NCC(O)COc1ccccc1N=[N+]=[N-] (stereo not shown) [Compound 4, 2-(2-Hydroxy-3-tert.-butylaminopropoxy)-azidobenzene] | 237± 7 | 246± 6 |  | 245±14 |  |  | 0.5 | 29 |  | 282± 5 | 58 |  |
